The values below come from patent publication US9408853B2, “Iridium/rhodium anti-cancer compounds” (University of Warwick, priority 2010, dated 2016).

The nature of data set [1]: Hydrolysis studies of C,N-chelated complexes and anation by NaCl (1H NMR). Format: physicochemical. As to conditions: 20% MeOD-d4/80% D2O; equilibrium reached within ~5 min even at 278 K. An excerpt:
Hydrolysis Studies. The hydrolysis of complexes [(η^5-C5Me5)Ir(2-phpy)Cl] (ZL47), [(η^5-C5Me4C6H4C6H5)Ir(2-phpy)Cl] (ZL49), [(η^5-C5Me5) Ir(2-phq)Cl] (ZL68), [(η^5-C5Me5) Ir(tpy)Cl] (ZL69), [(η^5-C5Me5)Ir(2-dfphpy)Cl] (ZL74) and [(η^5-C5Me4C6H5)Ir(2-phpy) Cl] (ZL107) in 20% MeOD-d4/80% D2O (v/v) was monitored by ^1H NMR at different temperatures. The presence of methanol ensured the solubility of the complexes.

The subject of data set [2] is human ovarian A2780 cancer cells. The data set can be described thus: Cancer cell cytotoxicity, SRB assay. Format: cell-based. The settings on record: 24 h exposure, 72 h recovery, SRB; read-out: A2780 IC50. The method, then:
Cancer Cell Cytotoxicity. After plating, human ovarian A2780 cancer cells were treated with Ir^III complexes on day 3 at concentrations ranging from 0.5 μM to 100 μM. Solutions of the Ir^III complexes were made up in 0.125% DMSO to assist dissolution. Stock solutions of the IrIII complexes were firstly prepared in DMSO to assist dissolution, and then diluted into 0.9% saline and medium. After plating 5000 A2780 cells per well on day 1, IrIII complexes were added to the cancer cells on day 3 at concentrations ranging from 0.05 μM to 100 μM. Cells were exposed to the complexes for 24 h, washed, supplied with fresh medium, allowed to grow for three doubling times (72 h), and then the protein content measured (proportional to cell survival) using the sulforhodamine B (SRB) assay.^15 […]. The standard errors are based on two independent experiments of three replicates each.

The next data set concerns 9-ethylguanine (9-EtG). The experiment in a line: Interactions with nucleobases: 9-EtG adduct formation (1H NMR). As to conditions: 310 K; for guanine adducts formed: ca. 1.0 mM, 1 mol equiv 9-EtG, 20% MeOD-d4/80% D2O; for Reaction with 9-EtG, extent of adduct formation: 1 mM, 1 mol equiv 9-EtG (ZL33A: 2 mol equiv), D2O. Format: binding. The method, then: (§1) Interactions with Nucleobases. The reaction of ZL01, ZL03, ZL04, ZL07, ZL25, ZL33, ZL37, ZL38, ZL43 and ZL54 and ZL33A with nucleobases typically involved addition of a solution containing 1-2 mol equiv of nucleobase in D2O, to an equilibrium solution of ZL01, ZL03, ZL04, ZL07, ZL25, ZL33, ZL37, ZL38, ZL43, ZL54 and ZL33A in a solution of 5% MeOD-d4/95% D2O (v/v). ^1H NMR spectra of these solutions were recorded at 310 K after various time intervals.
(§2) Since DNA is a potential target site for transition metal anticancer complexes,^18 nucleobase binding reactions of compounds ZL01, ZL03, ZL04, ZL07, ZL25, ZL33, ZL33A, ZL37, ZL38, ZL43 and ZL54 with nucleobase models 9-ethylguanine (9-EtG) and 9-ethyladenine (9-EtA), were investigated. Solutions of ZL01, ZL03, ZL04, ZL07, ZL25, ZL33, ZL37, ZL38, ZL43 and ZL54 (1 mM) (containing an equilibrium mixture of these complexes and their respective aqua adducts) with 1 mol equivalent of 9-EtG or 9-EtA in D2O were prepared, and ^1H NMR spectra were recorded at different time intervals.
Interactions with Nucleobases. Since DNA is a potential target site for transition metal anticancer complexes,^23 the binding of 9-ethylguanine (9-EtG) to complexes ZL47, ZL49, ZL69, ZL74 and ZL107 was studied.

The test system of the next data set is 9-ethyladenine (9-EtA). The data set can be described thus: Interactions with nucleobases: 9-EtA adduct formation (1H NMR). The settings on record: 1 mM, 1 mol equiv 9-EtA, D2O, 310 K. The format is binding. The method, then: as §1, §2
The next data set has as its system CH1 cancer cell line. The data set can be described thus: Cytotoxicity, MTT assay (Brabec group). The format is cell-based. As to conditions: for IC50: 72 h incubation, MTT; for cytotoxicity towards CH1 (in words): highest test concentration 130 μM. As to the method:
(§3) The cytotoxicity test of ZL07, ZL33, ZL38 and ZL54 against A2780, SW480, A549 and CH1 cell lines was performed by Viktor Brabec group (Institute of Biophysics, Academy of Sciences of the Czech Republic). After plating, the cells were treated with ZL07, ZL33, ZL38 and ZL54. After 72h of incubation 10 μl of MTT (2.5 mg/ml; CALBIOCHEM) was added to each well and incubated for 4 h in culture conditions. At the end of the incubation period the medium was removed and the formazan product was dissolved in 100 μl DMSO. The cell viability was evaluated by measurement of the absorbance at 570 nm, using an Absorbance Reader SUNRICE TECAN SCHOELLER. […] All experiments were made in quadruplicate.

The test system of the next data set is SW480 cancer cell line. The experiment in a line: Cytotoxicity, MTT assay (Brabec group). As to conditions: for IC50: 72 h incubation, MTT; for cytotoxicity towards SW480 (in words): highest test concentration 130 μM. The format is cell-based. As to the method: as §3
A further data set deals with A549 cancer cell line. The data set can be described thus: Cytotoxicity, MTT assay (Brabec group). The format is cell-based. The settings on record: for IC50: 72 h incubation, MTT. The method, then: as §3
A short description of data set [3]: Kinetics of hydrolysis followed by 1H NMR. As to conditions: 1H NMR, even at 278K. Format: physicochemical. The method, then: Kinetics for Hydrolysis. Although complexes ZL01-ZL04, ZL07, ZL38 and ZL43 hydrolyzed too rapidly to monitor by ^1H NMR, The kinetics of hydrolysis for complexes ZL25, ZL33, ZL37 and ZL54 were followed by ^1H NMR at different temperatures. For this, solutions of the complexes with a final concentration of 0.2 mM in 5% MeOD-d4/95% D2O (v/v) were prepared by dissolution of the complexes in MeOD-d4 followed by rapid dilution using D2O with a pH* of about 3 (acidified with HClO4), so that the aqua ligand was not deprotonated. ^1H NMR spectra were taken after various time intervals. The rates of hydrolysis were determined by fitting plots of concentrations (determined from ^1H NMR peak integrals) versus time to a pseudo first-order equation using ORIGIN version 7.0. The Arrhenius activation energy (Ea), activation enthalpies (ΔH^¢), and activation entropy (ΔS^‡) for compounds ZL25, ZL33, ZL37 and ZL54 were determined from the slopes of the Arrhenius and intercepts of Eyring plots.
The rates of hydrolysis of compounds ZL01-ZL04, ZL07, ZL25, ZL33, ZL37, ZL38, ZL43 and ZL54 in a 5% MeOD-d4/95% D2O were monitored by ^1H NMR at different temperature from 278 to 298 K by the observation of new peaks over time due to aqua adduct formation. Five percent MeOD was used to improve solubility, and acidic conditions (D2O, pH* 3) were used to prevent the deprotonation of the aqua complex as a secondary reaction. […] The percentage of aqua peak formation for ZL25, ZL33, ZL37 and ZL54 was plotted against time and was fitted to pseudofirst order kinetics (FIG. 3), and their halflife times were calculated (Table 1). The Arrhenius activation energy (Ea), activation enthalpy (ΔH^¢), and activation entropy (ΔS^‡) of compound ZL25, ZL33, ZL37 and ZL54 are listed in Table 4. The large negative ΔS^‡value for compound ZL54 is notable. The extent of hydrolysis at equilibrium is medium for all compounds, ranged from 30% to 60%.

Data set [4] relates to A2780 human ovarian cancer cells. The data set can be described thus: Cytotoxicity testing of rhodium complexes. Format: cell-based. The method, then:
Cytotoxicity testing in A2780 human ovarian cancer cells was performed by Dr Ana Maria Pizarro Arranz at the University of Warwick.

For a further data set, the system named is HT-29 cancer cell line. As to conditions: cited from earlier work.
In a further data set the test system is MCF-7 cancer cell line. As to conditions: cited from earlier work.

Take `Cc1c(C)c(C)[c-](C)c1C.Fc1c[c-]c(-c2ccccn2)c(F)c1.[Cl-].[Ir+3]` [ZL74, [(η^5-C5Me5)Ir(2-dfphpy)Cl]]: the “hydrolysis (in words)” value in data set [1] is listed as “rapid hydrolysis”. Also, the 50% inhibitory concentration (IC50) in [2] worked out at 6.53 ± 0.5 µM. Moreover, the guanine adducts formed in the data set on 9-ethylguanine (9-EtG) (24 h) was determined as 100%.

Turning to `Cc1c(C)c(-c2ccccc2)[c-](C)c1C.[Cl-].[Ir+3].[c-]1ccccc1-c1ccccn1` (stereo not drawn) [ZL107, [(η^5-C5Me4C6H5)(2-phpy)Cl]], the “hydrolysis (in words)” value in data set [1] was “rapid hydrolysis”. The concentration for half-maximal inhibition (IC50) in data set [2] was 2.14 ± 0.5 µM. Moreover, the guanine adducts formed with 9-ethylguanine (9-EtG) (24 h) is reported as 100%.

In the case of `Cc1c(C)c(C)[c-](C)c1C.Cc1c[c-]c(-c2ccccn2)cc1.[Cl-].[Ir+3]` [ZL69, [(η^5-C5Me5)Ir(tpy)Cl]], in data set [1], the “hydrolysis (in words)” value was “rapid hydrolysis”. Besides, the IC50 in [2] is 3.28 ± 0.14 µM. Moreover, the guanine adducts formed in the data set with 9-ethylguanine (9-EtG) (24 h) amounted to 100%.

In the case of `Cc1c(C)c(C)[c-](C)c1C.[Cl-].[Ir+3].[c-]1ccccc1-c1ccc2ccccc2n1` [ZL68, [(η^5-C5Me5)Ir(2-phq)Cl]], the “hydrolysis (in words)” value in data set [1] is reported as “rapid hydrolysis”. Further, the IC50 in [2] came to 2.55 ± 0.03 µM.

As to `Cc1c(C)c(C)[c-](C)c1C.[Cl-].[Cl-].[Ir+3].c1cnc2c(c1)ccc1cccnc12` [ZL07, [(η^5-C5Me5)Ir(phen)Cl]Cl], the 50% inhibitory concentration (IC50) in [2] is greater than 100 µM; in the data set with CH1 cancer cell line, 50.7 ± 2.8 µM; in the data set with SW480 cancer cell line, 80.1 ± 1.5 µM; in the data set on A549 cancer cell line, greater than 130 µM. The “Reaction with 9-EtA, extent of adduct formation” value with 9-ethyladenine (9-EtA) (10 min) and with 9-ethyladenine (9-EtA) (24 h) was 0% each time. Further, the “cytotoxicity towards CH1 (in words)” value with CH1 cancer cell line is recorded as “moderate activity”. For the same compound, the “cytotoxicity towards SW480 (in words)” value in the data set with SW480 cancer cell line is reported as “moderate activity”. In the data set on 9-ethylguanine (9-EtG) (10 min), the “Reaction with 9-EtG, extent of adduct formation” value was found to be 73.1%. Moreover, the “rate of hydrolysis (in words)” value in data set [3] is listed as “too rapid to be observed”.

On to “[(Cp^xPh)Rh(2-Phenylbipyridyl)Cl]Cl [JS29]”, for which the “relative activity against A2780 (in words)” value (“relative activity” below) in data set [4] was “most active”.

For the compound [(Cp*)Rh(2-phenylbipyridyl)Cl]Cl [JS36], in [4], the “relative activity” value is listed as “most active”.

Turning to `CN(C)C(=S)N(C)C.Cc1c(C)c(C)[c-](C)c1C.O=S(=O)([O-])C(F)(F)F.O=S(=O)([O-])C(F)(F)F.[Ir+3].c1ccc2cc3nc4c5cccnc5c5ncccc5c4nc3cc2c1` [[(η^5-C5Me5)Ir((NMe2)2CS)(dppn)](CF3SO3)2], in the data set with HT-29 cancer cell line, the “in vitro cytotoxic activity towards HT-29 (in words)” value is “possess in vitro cytotoxic activity”. Besides, the “in vitro cytotoxic activity towards MCF-7 (in words)” value in the data set on MCF-7 cancer cell line is listed as “possess in vitro cytotoxic activity”.

In the case of `Cc1c(C)c(-c2ccccc2)[c-](C)c1C.O=C([O-])c1ccccn1.[Cl-].[Ir+3]` (stereo not drawn) [ZL38, [(η^5-C5Me4C6H5)Ir(η^2-C5H4N-2-CO2)Cl]], the IC50 in data set [2] was greater than 100 µM; with CH1 cancer cell line, greater than 130 µM; in the data set with SW480 cancer cell line it was greater than 130 µM; with A549 cancer cell line, greater than 130 µM. Besides, the “Reaction with 9-EtA, extent of adduct formation” value in the data set with 9-ethyladenine (9-EtA) (10 min) and in the data set on 9-ethyladenine (9-EtA) (24 h) was 76.0% each time. In addition, in the data set on CH1 cancer cell line, the “cytotoxicity towards CH1 (in words)” value is “nontoxic”. In addition, the “cytotoxicity towards SW480 (in words)” value in the data set on SW480 cancer cell line is reported as “nontoxic”. The “cytotoxicity towards A549 (in words)” value in the data set on A549 cancer cell line (highest test concentration 130 μM) is “nontoxic”. The “Reaction with 9-EtG, extent of adduct formation” value with 9-ethylguanine (9-EtG) (10 min) and with 9-ethylguanine (9-EtG) (24 h) was 100% each time. In data set [3], the “rate of hydrolysis (in words)” value is reported as “too rapid to be observed”.

Regarding `Cc1c(C)c(C)[c-](C)c1C.O=S(=O)([O-])C(F)(F)F.[Cl-].[Ir+3].c1ccc2nc3c4cccnc4c4ncccc4c3nc2c1` [[(η^5-C5Me5)IrCl(dppz)](CF3SO3)], in the data set on HT-29 cancer cell line, the “in vitro cytotoxic activity towards HT-29 (in words)” value was “possess in vitro cytotoxic activity”. Further, the “in vitro cytotoxic activity towards MCF-7 (in words)” value with MCF-7 cancer cell line was “possess in vitro cytotoxic activity”.

Take “[(Cp^xdiPh)Rh(2-phenylbipyridyl)Cl]Cl [JS39]”: the “relative activity” value in data set [4] was “most active”.

As to `Cc1c(C)c(C)[c-](C)c1C.O=S(=O)([O-])C(F)(F)F.[Cl-].[Ir+3].c1cnc2c(c1)ccc1cccnc12` [[(η^5-C5Me5)Ir(phen)Cl](CF3SO3)], the “in vitro cytotoxic activity towards MCF-7 (in words)” value with MCF-7 cancer cell line was “inactive”.

For `Cc1c(C)c(C)[c-](C)c1C.NCCN.O=S(=O)([O-])C(F)(F)F.[Cl-].[Ir+3]` [[(η^5-C5Me5) Ir(en)Cl](CF3SO3)], in the data set with MCF-7 cancer cell line, the “in vitro cytotoxic activity towards MCF-7 (in words)” value is “inactive”.
